Inconclusive results and toxic doses are left out. The calls were made as follows: active = survival T/C of 150% or more; inactive = T/C below 125% in these data.
Test system: CD2F1 mice, L1210 leukemia ip, survival T/C
Assay: NCI In Vivo Anticancer Drug Screen. Data for tumor model L1210 Leukemia (intraperitoneal) in CD2F1 (CDF1) mice
Settings: higher = longer survival
Procedure, shortened: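 Transplantable tumor in mice; compound-treated vs vehicle-treated groups. Read-out = treated/control ratio of the measured endpoint.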

[1] = endpoint: mean survival time, dose: 75.0 mg/kg/injection, schedule: Q01DX009 (ip), vehicle: saline with Tween-80
[2] = endpoint: mean survival time, dose: 150.0 mg/kg/injection, schedule: Q01DX009 (ip), vehicle: saline with Tween-80
[3] = endpoint: mean survival time, dose: 300.0 mg/kg/injection, schedule: Q01DX009 (ip), vehicle: saline with Tween-80
[4] = endpoint: mean survival time, dose: 100.0 mg/kg/injection, schedule: Q01DX009 (ip), vehicle: saline with Tween-80
[5] = endpoint: mean survival time, dose: 200.0 mg/kg/injection, schedule: Q01DX009 (ip), vehicle: saline with Tween-80
[6] = endpoint: mean survival time, dose: 400.0 mg/kg/injection, schedule: Q01DX009 (ip), vehicle: saline with Tween-80
[7] = endpoint: mean survival time, dose: 12.5 mg/kg/injection, schedule: Q04DX003 (ip), vehicle: saline
[8] = endpoint: mean survival time, dose: 100.0 mg/kg/injection, schedule: Q04DX003 (ip), vehicle: saline with Tween-80
[9] = endpoint: mean survival time, dose: 200.0 mg/kg/injection, schedule: Q04DX003 (ip), vehicle: saline with Tween-80
[10] = endpoint: mean survival time, dose: 400.0 mg/kg/injection, schedule: Q04DX003 (ip), vehicle: saline with Tween-80

Measured: T/C

C[Si](C)C(Cl)Cl
inactive: [1] 96 % of control | [2] 98 % of control | [3] 102 % of control

O=C1CC(c2ccc(Br)cc2)N(c2ccc([As](=O)(O)O)cc2)C1=O (configuration not stated)
inactive: endpoint: mean survival time, dose: 6.25 mg/kg/injection, schedule: Q01DX009 (ip), vehicle: Klucel (hydroxypropylcellulose) (HPC) 95 % of control | endpoint: mean survival time, dose: 12.5 mg/kg/injection, schedule: Q01DX009 (ip), vehicle: Klucel (hydroxypropylcellulose) (HPC) 89 % of control | endpoint: median survival time, dose: 6.25 mg/kg/injection, schedule: Q04DX003 (ip), vehicle: saline with Tween-80 100 % of control | endpoint: median survival time, dose: 12.5 mg/kg/injection, schedule: Q04DX003 (ip), vehicle: saline with Tween-80 106 % of control | endpoint: median survival time, dose: 25.0 mg/kg/injection, schedule: Q04DX003 (ip), vehicle: saline with Tween-80 100 % of control

CC1SC(=S)NC1=O (configuration not stated)
inactive: endpoint: mean survival time, dose: 100.0 mg/kg/injection, schedule: Q04DX003 (ip), vehicle: saline sonified 93 % of control | endpoint: mean survival time, dose: 200.0 mg/kg/injection, schedule: Q04DX003 (ip), vehicle: saline sonified 113 % of control | endpoint: mean survival time, dose: 400.0 mg/kg/injection, schedule: Q04DX003 (ip), vehicle: saline sonified 96 % of control

CC(=O)Nc1onc(C)c1NC(C)=O
inactive: [4] 95 % of control | [5] 101 % of control | [6] 95 % of control

O=C(O)C(=O)c1ccccc1
inactive: endpoint: mean survival time, dose: 50.0 mg/kg/injection, schedule: Q01DX009 (ip), vehicle: saline 98 % of control | endpoint: mean survival time, dose: 100.0 mg/kg/injection, schedule: Q01DX009 (ip), vehicle: saline 104 % of control | endpoint: mean survival time, dose: 200.0 mg/kg/injection, schedule: Q01DX009 (ip), vehicle: saline 107 % of control

Cn1cnc([N+](=O)[O-])c1Sc1cn(C2CC(O)C(CO)O2)c(=O)[nH]c1=O (configuration not stated)
inactive: endpoint: mean survival time, dose: 12.5 mg/kg/injection, schedule: Q01DX005 (ip), vehicle: water 102 % of control | endpoint: mean survival time, dose: 25.0 mg/kg/injection, schedule: Q01DX005 (ip), vehicle: water 102 % of control | endpoint: mean survival time, dose: 50.0 mg/kg/injection, schedule: Q01DX005 (ip), vehicle: water 104 % of control | endpoint: mean survival time, dose: 100.0 mg/kg/injection, schedule: Q01DX005 (ip), vehicle: water 98 % of control | endpoint: mean survival time, dose: 200.0 mg/kg/injection, schedule: Q01DX005 (ip), vehicle: water 106 % of control

C[N+](C)(C)Cc1ccccc1
inactive: endpoint: mean survival time, dose: 3.13 mg/kg/injection, schedule: Q01DX009 (ip), vehicle: saline with Tween-80 97 % of control | endpoint: mean survival time, dose: 6.25 mg/kg/injection, schedule: Q01DX009 (ip), vehicle: saline with Tween-80 97 % of control | endpoint: mean survival time, dose: 12.5 mg/kg/injection, schedule: Q01DX009 (ip), vehicle: saline with Tween-80 95 % of control | [7] 104 % of control

NC1=C(Cl)C(=O)C(N)=C(Cl)C1=O
inactive: [8] 101 % of control | [9] 101 % of control

S=P(Cc1ccccc1)(c1ccccc1)c1ccccc1
inactive: endpoint: mean survival time, dose: 50.0 mg/kg/injection, schedule: Q01DX009 (ip), vehicle: saline with Tween-80 89 % of control | [4] 90 % of control | [8] 88 % of control | [9] 86 % of control

O=C1c2ccccc2S(=O)(=O)c2cccc(S(=O)(=O)c3ccccc3)c21
inactive: [8] 98 % of control | [9] 95 % of control | [10] 90 % of control

CNC(=O)Nc1cccc(OS(=O)(=O)N(C)C)c1
inactive: [4] 92 % of control | [5] 95 % of control | [6] 95 % of control

CC(CCOc1ccc2ccc(=O)oc2c1)C1=CC(=O)C(C)(C)O1 (configuration not stated)
inactive: endpoint: mean survival time, dose: 50.0 mg/kg/injection, schedule: Q01DX001 (ip), vehicle: saline with Tween-80 113 % of control | endpoint: mean survival time, dose: 100.0 mg/kg/injection, schedule: Q01DX001 (ip), vehicle: saline with Tween-80 95 % of control | endpoint: mean survival time, dose: 200.0 mg/kg/injection, schedule: Q01DX001 (ip), vehicle: saline with Tween-80 98 % of control

OCn1c2ccccc2c2ccccc21
inactive: [8] 89 % of control | [9] 87 % of control | [10] 87 % of control

O=C1C=C(Nc2cccc(C(=O)O)c2)c2ccccc2C1=O
inactive: endpoint: mean survival time, dose: 75.0 mg/kg/injection, schedule: Q01DX001 (ip), vehicle: saline 101 % of control | endpoint: mean survival time, dose: 300.0 mg/kg/injection, schedule: Q01DX001 (ip), vehicle: saline 101 % of control

O=C(Nc1ccccc1)O/N=C(/c1ccccc1)c1cccnc1
inactive: endpoint: mean survival time, dose: 100.0 mg/kg/injection, schedule: Q01DX001 (ip), vehicle: other 104 % of control | endpoint: mean survival time, dose: 200.0 mg/kg/injection, schedule: Q01DX001 (ip), vehicle: other 104 % of control | endpoint: mean survival time, dose: 400.0 mg/kg/injection, schedule: Q01DX001 (ip), vehicle: other 98 % of control

N#[N+]c1cn(C2CC(O)C(CO)O2)c(=O)[nH]c1=O (configuration not stated)
inactive: [8] 101 % of control | [9] 98 % of control | [10] 118 % of control

O=C1CCSc2ccccc21
inactive: [1] 95 % of control | [8] 104 % of control | endpoint: mean survival time, dose: 100.0 mg/kg/injection, schedule: Q04DX003 (ip), vehicle: saline 100 % of control | [2] 102 % of control | [9] 101 % of control | endpoint: mean survival time, dose: 200.0 mg/kg/injection, schedule: Q04DX003 (ip), vehicle: saline 100 % of control | [3] 96 % of control | [10] 102 % of control | endpoint: mean survival time, dose: 400.0 mg/kg/injection, schedule: Q04DX003 (ip), vehicle: saline 100 % of control

CC(=O)Nc1ccc(CCc2nc(NC(C)=O)nc(Cl)c2-c2ccc(Cl)c(Cl)c2)cc1
inactive: endpoint: mean survival time, dose: 75.0 mg/kg/injection, schedule: Q01DX001 (ip), vehicle: saline with Tween-80 103 % of control | endpoint: mean survival time, dose: 150.0 mg/kg/injection, schedule: Q01DX001 (ip), vehicle: saline with Tween-80 101 % of control | endpoint: mean survival time, dose: 300.0 mg/kg/injection, schedule: Q01DX001 (ip), vehicle: saline with Tween-80 94 % of control

S=c1[nH]cc[nH]1
inactive: endpoint: mean survival time, dose: 100.0 mg/kg/injection, schedule: Q01DX001 (ip), vehicle: saline 103 % of control | endpoint: mean survival time, dose: 200.0 mg/kg/injection, schedule: Q01DX001 (ip), vehicle: saline 100 % of control | endpoint: mean survival time, dose: 400.0 mg/kg/injection, schedule: Q01DX001 (ip), vehicle: saline 96 % of control

O=[N+]([O-])c1ccc2nc(CC(O)(C(F)(F)F)C(F)(F)F)ccc2c1
inactive: [4] 112 % of control | [8] 102 % of control | [5] 110 % of control | [9] 97 % of control | [6] 101 % of control | [10] 113 % of control

CNC(=O)Sc1nnnc2ccccc12
inactive: [8] 101 % of control | [9] 93 % of control | [10] 98 % of control

[Cl][Pt+2][Cl].[NH-]CCO.[NH-]CCO
inactive: [7] 102 % of control | endpoint: mean survival time, dose: 50.0 mg/kg/injection, schedule: Q04DX003 (ip), vehicle: saline 118 % of control

C=CCNC(=O)/C(=C\c1ccccc1)NC(C)=O
inactive: [4] 96 % of control | [8] 98 % of control | [5] 98 % of control | [9] 100 % of control | [6] 95 % of control | [10] 100 % of control

CC(=O)NC/C(Cl)=C/Cl
inactive: [8] 99 % of control | [9] 96 % of control | [10] 88 % of control

Reference: PubChem BioAssay AID256 (DTP/NCI, 2004)
